Like-named read-outs stand apart in the source and are kept apart here.
Experiments:
[1] = Cytotoxicity, MTT method in LUNET cells; type: cell-based; conditions: human; MMT method in LUNET cells; read-out: CC50 (μM) non-infected cells
Method: (§1) Toxicity (CC50) was analysed in the Lunet/HuH7 cells by the addition of 10 μL of MTT (3-(4,5-dimethylthiazol-2-yl)-2,5-diphenyltetrazolium bromide) per well. After 4 h of incubation at 37° C. in a humidified atmosphere with 5% CO2, the amount of formazan produced was quantified spectrophotometrically at 550/620 nm (C. Pannecouque et al, Nature protocol 2008; 3 (3): 427-434). […] These assays were done in duplicate.

[2] = tested on: Hepatitis C Virus (HCV) replicon system; assay: HCV replicon system, luciferase method in LucUbiNeo-ET cells; conditions: for EC50: read-out: EC50 (μM) HCV replicon system
in vitro = conditions: hamster
DDX3 Helicase [3] = biological target: T1, DDX3 Helicase (Homo sapiens, UniProt O00571); conditions: read-out: ID50 (μM) against DDX3 Helicase; n.a. = compound not active
JEV strain (NJ2008) = assay: JEV infectious cell culture system, plaque formation assay in BHK-21 cells; conditions: Japanese encephalitis virus, BHK-21, read-out: JEV EC50
Lunet/HuH7 cells = assay: Cytotoxicity, MTT method in LUNET cells; type: cell-based; conditions: MMT method in LUNET cells; read-out: CC50 (μM) non-infected cells
Method: as §1

[4] = Cytotoxicity in Huh7 cells, nuclei counts; conditions: human
[5] = tested on: HCV Jc1 (genotype 2a virus); assay: HCV infectious cell culture system, NS5A immunostaining; conditions: Hepatitis C virus, Huh7.5, read-out: HCV EC50
DDX3 Helicase [6] = biological target: T1, DDX3 Helicase; assay: biochemical
[7] = Parallel Artificial Membrane Permeability Assay (PAMPA); type: in vitro ADME; conditions: for PAMPA membrane retention (RM %): value in brackets in the PAMPA cell
Method: Parallel Artificial Membrane Permeability Assay (PAMPA). Donor solution (0.5 mM) was prepared by diluting 1 mM dimethylsulfoxide (DMSO) compound stock solution using phosphate buffer (pH 7.4, 0.025 M). Filters were coated with 5 μL of a 1% (w/v) dodecane solution of phosphatidylcholine prepared from CHCl3 solution 10% w/v, for intestinal permeability. Donor solution (150 μL) was added to each well of the filter plate. To each well of the acceptor plate were added […] (50% DMSO in phosphate buffer). All compounds were tested in three different plates on different days. The sandwich was incubated for 5 h at room temperature under gentle shaking. After the incubation time, the plates were separated, and samples were taken from both receiver and donor sides and analyzed using LC with UV detection at 280 nm.
LC analysis were performed with a Varian Prostar HPLC system (Varian Analytical Instruments, USA) equipped with a binary pump with a manual injection valve and model Prostar 325 UV-VIS Detector.
Permeability (Papp) for PAMPA was calculated according to the following equation, obtained from Wohnsland and Faller and Sugano et al. equation with some modification in order to obtain permeability values in cm s^−1,
where VA is the volume in the acceptor well, VD is the volume in the donor well (cm^3), A is the “effective area” of the membrane (cm^2), t is the incubation time (s) and r the ratio between drug concentration in the acceptor and equilibrium concentration of the drug in the total volume (VD+VA). Drug concentration is estimated by using the peak area integration.
Membrane retentions (%) were calculated according to the following equation: […]
where r is the ratio between drug concentration in the acceptor and equilibrium concentration, D, A, and Eq represented drug concentration in the donor, acceptor and equilibrium solution, respectively.

Water Solubility Assay = type: physicochemical; conditions: thermodynamic from solid
Method: Water Solubility Assay. Each solid compound (1 mg) was added to 1 mL of water. The samples were shaked in a shaker bath at room temperature for 24-36 h. The suspensions were filtered through a 0.45 μm nylon filter (Acrodisc), and the solubilized compound determined by LC-MS-MS assay. For each compound the determination was performed in triplicate.
For the quantification was used an LC-MS system consisted of a Varian apparatus (Varian Inc) including a vacuum solvent degassing unit, two pumps (212-LC), a Triple Quadrupole MSD (Mod. 320-LC) mass spectrometer with ES interface and Varian MS Workstation System Control Vers. 6.9 software. […] The flow rate was 0.2 mL min^−1 and injection volume was 5 μL. The instrument operated in positive mode and parameters were: detector 1850 V, drying gas pressure 25.0 psi, desolvation temperature 300.0° C., nebulizing gas 40.0 psi, needle 5000 V and shield 600 V. Nitrogen was used as nebulizer gas and drying gas. Collision induced dissociation was performed using Argon as the collision gas at a pressure of 1.8 mTorr in the collision cell.

[8] = Cytotoxicity, MTT method in HuH7.5 cells; type: cell-based; conditions: human, non-infected, read-out: HCV CC50
Method: After 4 h of incubation at 37° C. in a humidified atmosphere with 5% CO2, the amount of formazan produced was quantified spectrophotometrically at 550/620 nm (C. Pannecouque et al, Nature protocol 2008; 3 (3): 427-434). […] These assays were done in duplicate.

PRRSV = PRRSV infectious cell culture system, plaque formation assay in MARC-145 cells; type: cell-based; conditions: Porcine reproductive and respiratory syndrome virus, MARC145; viral titre by plaque formation assay in MARC-145 cells
Method: According to the requirement of different experiments, MARC-145 cells were either infected with PRRSV at MOIs of 0.1, 1 or 10, or mock infected with phosphate-buffered saline (PBS). After 1 h incubation at 37° C., unbounded viruses were removed by washing thrice with PBS and cultured in DMEM supplemented with 8% FBS at 37° C. for various lengths of time. For the autophagy induction and inhibition experiments, MARC-145 cells were pretreated with varying concentrations of rapamycin or 3-MA for 4 h before viral infection. MARC-145 cells were then infected with PRRSV at MOI of 1. After 1 h incubation at 37° C., unbounded viruses were removed by washing thrice with PBS and cultured in DMEM supplemented with 2% FBS containing varying concentrations of compound, 3-MA or the corresponding amount of dimethyl sulfoxide (DMSO, control) at 37° C. for 24 h.

[9] = tested on: HIV-1 wild-type reference strain NL4-3; assay: HIV-1 phenotypic assay, MT-2 cells then TZM-bl cells, luciferase; type: cell-based; conditions: Human immunodeficiency virus 1, NL43; first cycle in MT-2 cells, additional round in TZM-bl cells
[10] = Cytotoxicity in PBMC, CellTiter 96 MTS viability assay; type: cell-based; conditions: human, human primary PBMCs
[11] = Cytotoxicity in the JEV cell culture system; conditions: hamster
[12] = tested on: human liver microsome (HLM); assay: Microsomal Stability Assay; conditions: human liver microsomes, 37 °C, 60 min, compound 50 μM; percentage of not metabolized compound
HIV (PBMC) = assay: HIV infectious cell culture system in PBMC, HIV-1 RNA in supernatant; conditions: Human immunodeficiency virus 1, PBMC, 72 h, read-out: EC50 HIV (PBMC) 72 h
DDX3 = DDX3 (Homo sapiens, UniProt O00571); conditions: literature values; cited from earlier work
HIV-1 (IIIB) = conditions: read-out: EC50 replication of HIV-1 (IIIB) in MT4-cells; cited from earlier work
MOLT-4 T-lymphocytic = conditions: cited from earlier work
HIV = conditions: EI01D; read-out: EC50 inhibition of viral load of PBMCs infected with HIV; cited from earlier work
[13] = DENV CC50, Huh7 cells, DENV experiment
[14] = WNV CC50, Huh7 cells, WNV experiment
[15] = experimental aqueous solubility, read-out: LogS (converted)
[16] = room temperature, 24-36 h, read-out: Aq. Solub.

T1 sequence (O00571 whole entry): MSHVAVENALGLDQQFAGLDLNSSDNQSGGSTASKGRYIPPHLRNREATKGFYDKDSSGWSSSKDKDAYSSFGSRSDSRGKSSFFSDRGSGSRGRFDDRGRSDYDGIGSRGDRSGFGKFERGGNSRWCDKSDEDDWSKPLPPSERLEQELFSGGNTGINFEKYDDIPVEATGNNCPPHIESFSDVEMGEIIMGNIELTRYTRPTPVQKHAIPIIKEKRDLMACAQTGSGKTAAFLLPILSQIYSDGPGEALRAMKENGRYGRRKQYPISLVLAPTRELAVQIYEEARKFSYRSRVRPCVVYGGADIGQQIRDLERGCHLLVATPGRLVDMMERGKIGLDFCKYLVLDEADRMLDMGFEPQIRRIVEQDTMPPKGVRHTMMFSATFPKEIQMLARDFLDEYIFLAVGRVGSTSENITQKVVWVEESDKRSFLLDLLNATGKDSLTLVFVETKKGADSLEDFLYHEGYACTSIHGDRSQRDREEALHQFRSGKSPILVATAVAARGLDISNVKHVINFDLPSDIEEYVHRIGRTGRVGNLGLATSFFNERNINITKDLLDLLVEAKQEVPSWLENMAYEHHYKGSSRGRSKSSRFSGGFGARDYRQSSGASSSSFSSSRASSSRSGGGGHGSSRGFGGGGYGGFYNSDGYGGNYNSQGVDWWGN
Sequence of DDX3 (O00571 whole entry): as above

SMILES: CCOP(=O)(OCC)OCCc1cn(-c2ccc(NC(=O)Nc3ccccc3C)cc2)nn1 [Compound 36, diethyl (2-(1-(4-(3-(o-tolyl)ureido)phenyl)-1H-1,2,3-triazol-4-yl)ethyl) phosphate]
- CC50 [1]: > 150 µM
- EC50 ([2]; Hepatitis C virus, 48 h): 75 µM
- CC50 (in vitro): > 50 µM
- IC50 (DDX3 Helicase [3]): 0.9 µM
- EC50 (JEV strain (NJ2008)): 21.1 µM

SMILES: CCCCCCc1cn(-c2ccc(NC(=O)Nc3ccccc3C(F)(F)F)cc2)nn1 [Compound 8d]
- CC50 (Lunet/HuH7 cells): 290 µM
- EC50 ([2]; luciferase method in LucUbiNeo-ET cells, 2 days): 0.67 µM

SMILES: Cc1ccccc1NC(=O)Nc1ccc(-n2cc(CCC(C)C)nn2)cc1 [Compound 20b, 1-(4-(4-isopentyl-1H-1,2,3-triazol-1-yl)phenyl)-3-o-tolylurea]
- CC50 at 48 h [4, 13]: 40.4 µM
- CC50 at 48 h [4, 14]: 62.3 µM
- EC50 [5]: 30 µM
- CC50 [1]: 189 µM
- activity against HCV, in words [2]: best activity
- EC50 ([2]; Hepatitis C virus, 48 h): 0.8 µM
- IC50 (DDX3 Helicase [6]): 0.5 µM
- Papp at 5 h, 0.5 mM ([7]; PAMPA, phosphatidylcholine in dodecane, pH 7.4, 5 h, room temperature, read-out: PAMPA Papp *10^−6 (cm/s) GI): 1.93 ×10⁻⁶ cm/s
- PAMPA membrane retention (RM %) [7]: 26.7%
- solubility (Water Solubility Assay; [15]): < 0.00251 µM
- solubility (Water Solubility Assay; [16]): < 0.001 µg/mL
- CC50 [8]: 209 µM

SMILES: CCCCc1cn(-c2cccc(S(=O)(=O)Nc3ccccc3C(F)(F)F)c2)nn1 [Compound 64d, 3-(4-butyl-1H-1,2,3-triazol-1-yl)-N-(2-(trifluoromethyl)phenyl)benzenesulfonamide]
- EC50 (PRRSV): 30 µM
- EC50 [9]: 12.7 µM
- IC50 (DDX3 Helicase [3]): 0.4 µM
- EC50 (JEV strain (NJ2008)): 6.7 µM
- CC50 at 24 h ([10]; 24 h): 2130 µM
- CC50 at 48 h ([10]; 48 h): 332 µM
- CC50 at 72 h [10]: 198 µM
- CC50 [11]: > 50 µM
- Metabolic stability (Sability %) [12]: 99%
- EC50 (HIV (PBMC)): 31 µM

SMILES: O=C(CN1C(=O)/C(=C/c2cccc(Br)c2)SC1=S)Nc1ccccc1O [FE15]
- Ki (DDX3): 5.4 µM
- EC50 (HIV-1 (IIIB)): 86.7 µM
- CC50 (MOLT-4 T-lymphocytic): > 200 µM

SMILES: Cc1ccccc1NC(=O)Nc1cccc([N+](=O)[O-])c1 [EI01D, reference compound]
- EC50 (HIV): 10 µM
- CC50 [1]: 86 µM
- activity against HCV, in words [2]: completely inactive
- EC50 ([2]; Hepatitis C virus, 48 h): > 86 µM
- IC50 (DDX3 Helicase [3]): 1 µM
- EC50 (JEV strain (NJ2008)): 10 µM
- CC50 at 72 h [10]: 100 µM
- CC50 [11]: > 50 µM
- EC50 (HIV (PBMC)): 10 µM

SMILES: CCCCc1cn(-c2ccc(NC(=O)Nc3ccccc3C(F)(F)F)cc2)nn1 [Compound 22a, 1-(4-(4-butyl-1H-1,2,3-triazol-1-yl)phenyl)-3-(2-(trifluoromethyl)phenyl)urea]
- CC50 at 48 h [4, 13]: 178 µM
- CC50 at 48 h [4, 14]: 145 µM
- EC50 [5]: 0.6 µM
- CC50 [1]: 200 µM
- activity against HCV, in words [2]: best activity
- EC50 ([2]; Hepatitis C virus, 48 h): 0.3 µM
- IC50 (DDX3 Helicase [6]): 0.3 µM
- PAMPA Papp *10^−6 (cm/s) GI ([7]; phosphatidylcholine in dodecane, pH 7.4, 5 h, room temperature): 7.47 *10^−6 cm/s
- PAMPA membrane retention (RM %) [7]: 23.9%
- solubility (Water Solubility Assay; [15]): 0.0372 µM
- solubility (Water Solubility Assay; [16]): 0.107 µg/mL
- CC50 [8]: 94.4 µM

Reference: patent US10941121B2 (AZIENDA OSPEDALIERA UNIVERSITARIA SENESE, priority 2015, dated 2021)
